Molecular target: Tumor necrosis factor (Homo sapiens, UniProt P01375)
Experiment: Binding affinity to TNF-alpha (unknown origin)

Tumor necrosis factor, sequence (P01375 whole entry): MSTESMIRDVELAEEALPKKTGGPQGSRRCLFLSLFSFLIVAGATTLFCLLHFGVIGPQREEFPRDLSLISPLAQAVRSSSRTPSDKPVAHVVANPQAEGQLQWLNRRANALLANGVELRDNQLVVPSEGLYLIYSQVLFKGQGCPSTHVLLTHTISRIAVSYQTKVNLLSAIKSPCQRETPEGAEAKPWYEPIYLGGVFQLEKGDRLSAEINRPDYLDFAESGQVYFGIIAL

C[C@H](CC(=O)C[C@@H](C)[C@H]1C[C@@H](O)[C@@]2(C)C3=C(C(=O)C[C@@]12C)[C@@]1(C)CCC(=O)C(C)(C)[C@H]1C[C@@H]3O)C(=O)O
Kd: 8 nM

From BindingDB's records for doi:10.1016/j.ejmech.2014.06.037 (The Second People'S Hospital of Fujian Provinc, 2014)
